Measurements reported in article PMC3293798, “Amino Acid Residues Contributing to Function of the Heteromeric Insect Olfactory Receptor Complex” (PLoS ONE, 2012).
Positions count from the first letter of the chain named. Blank lines part the entries; values can stand above or below the compound they belong to.

Tests used:
Format in all cases: cell-based
BmOr-1-BmOrco [1] = target: T1, BmOr-1-BmOrco (Bombyx mori, UniProt Q5WA61); experiment: two-electrode voltage clamp, Xenopus oocytes, bombykol response after MTSET; conditions: covalent; Cys modification of native Cys suggested; 60 s pretreatment; bombykol 1 µM
T1 construct: full-length cRNAs from modified pSPUTK vector, co-injected (25 ng each) in Xenopus laevis oocytes; heteromer of unknown stoichiometry; with Odorant receptor coreceptor
T1 sequence (Q5WA61 1-430): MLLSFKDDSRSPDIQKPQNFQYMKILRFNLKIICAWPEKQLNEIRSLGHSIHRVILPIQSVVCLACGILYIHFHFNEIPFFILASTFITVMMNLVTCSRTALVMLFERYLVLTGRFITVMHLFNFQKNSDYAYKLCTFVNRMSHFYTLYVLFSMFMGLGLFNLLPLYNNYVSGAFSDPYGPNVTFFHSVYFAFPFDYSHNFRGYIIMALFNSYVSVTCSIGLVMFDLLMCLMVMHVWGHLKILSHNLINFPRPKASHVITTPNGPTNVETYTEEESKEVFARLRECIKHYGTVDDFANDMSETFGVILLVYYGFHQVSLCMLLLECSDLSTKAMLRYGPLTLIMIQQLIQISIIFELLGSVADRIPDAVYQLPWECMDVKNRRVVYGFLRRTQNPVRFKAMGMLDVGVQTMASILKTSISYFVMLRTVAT
T1 sequence (Q7YT34 1-472 partner): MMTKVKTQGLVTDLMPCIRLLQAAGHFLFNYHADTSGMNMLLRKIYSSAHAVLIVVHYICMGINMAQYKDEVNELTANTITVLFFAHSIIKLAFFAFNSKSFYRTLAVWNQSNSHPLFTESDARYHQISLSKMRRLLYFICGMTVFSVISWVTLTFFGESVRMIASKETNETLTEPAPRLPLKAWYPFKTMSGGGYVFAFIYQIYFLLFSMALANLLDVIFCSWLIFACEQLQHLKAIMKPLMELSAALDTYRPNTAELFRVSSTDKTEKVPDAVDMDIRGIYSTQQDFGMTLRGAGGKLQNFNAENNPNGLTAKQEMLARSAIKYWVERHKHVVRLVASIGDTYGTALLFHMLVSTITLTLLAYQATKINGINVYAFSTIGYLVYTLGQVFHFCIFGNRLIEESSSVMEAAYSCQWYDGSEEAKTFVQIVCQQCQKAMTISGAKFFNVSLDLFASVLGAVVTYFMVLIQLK

[2] = target: T2, Or47a with Drosophila Orco (Drosophila melanogaster, UniProt P81921); experiment: two-electrode voltage clamp, Xenopus oocytes, current-voltage curves; conditions: agonist; 1 mM odorant
T2 construct: full-length cRNAs co-injected in Xenopus laevis oocytes; heteromer of unknown stoichiometry; with Odorant receptor coreceptor
T2 sequence (P81921 1-385): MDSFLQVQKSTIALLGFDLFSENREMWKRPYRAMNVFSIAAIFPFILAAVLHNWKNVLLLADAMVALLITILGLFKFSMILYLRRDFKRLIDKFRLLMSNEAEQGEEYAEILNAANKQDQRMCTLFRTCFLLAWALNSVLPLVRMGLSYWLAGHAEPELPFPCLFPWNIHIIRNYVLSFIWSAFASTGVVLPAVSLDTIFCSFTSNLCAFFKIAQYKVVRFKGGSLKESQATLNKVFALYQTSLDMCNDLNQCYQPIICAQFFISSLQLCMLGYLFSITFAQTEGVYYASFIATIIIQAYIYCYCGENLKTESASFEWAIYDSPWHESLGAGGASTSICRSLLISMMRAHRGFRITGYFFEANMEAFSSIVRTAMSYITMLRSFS
T2 sequence (Q9VNB5 1-486 partner): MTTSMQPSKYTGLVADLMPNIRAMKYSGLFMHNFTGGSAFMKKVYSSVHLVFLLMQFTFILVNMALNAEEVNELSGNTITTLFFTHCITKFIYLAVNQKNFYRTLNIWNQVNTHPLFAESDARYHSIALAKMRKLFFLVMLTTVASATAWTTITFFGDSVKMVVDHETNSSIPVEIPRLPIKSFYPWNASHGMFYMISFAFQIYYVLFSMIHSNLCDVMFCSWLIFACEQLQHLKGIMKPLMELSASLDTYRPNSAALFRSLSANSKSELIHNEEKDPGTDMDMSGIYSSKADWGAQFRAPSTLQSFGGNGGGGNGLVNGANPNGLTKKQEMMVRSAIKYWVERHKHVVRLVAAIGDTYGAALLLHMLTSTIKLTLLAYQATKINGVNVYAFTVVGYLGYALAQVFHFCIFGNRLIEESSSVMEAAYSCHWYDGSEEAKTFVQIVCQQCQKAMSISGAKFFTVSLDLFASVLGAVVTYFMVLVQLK

BmOr-1-BmOrco [3] = target: T1, BmOr-1-BmOrco; experiment: two-electrode voltage clamp, Xenopus oocytes, dose-response
BmOr-1-BmOrco [4] = target: T3, BmOr-1-BmOrco (Bombyx mori, UniProt Q5WA61, E356C); experiment: as above
T3 construct: full-length cRNAs from modified pSPUTK vector, co-injected (25 ng each) in Xenopus laevis oocytes; heteromer of unknown stoichiometry; with Odorant receptor coreceptor
T3 sequence (Q5WA61 1-430 E356C): T1 sequence (Q5WA61 1-430) with E356C
T3 sequence (Q7YT34 1-472 partner): T1 sequence (Q7YT34 1-472 partner)

[5] = target: T4, Or22a with Drosophila Orco (Drosophila melanogaster, UniProt P81909); experiment: two-electrode voltage clamp, Xenopus oocytes, current-voltage curves; conditions: agonist; 1 mM odorant
T4 construct: full-length cRNAs co-injected in Xenopus laevis oocytes; heteromer of unknown stoichiometry; with Odorant receptor coreceptor
T4 sequence (P81909 1-397): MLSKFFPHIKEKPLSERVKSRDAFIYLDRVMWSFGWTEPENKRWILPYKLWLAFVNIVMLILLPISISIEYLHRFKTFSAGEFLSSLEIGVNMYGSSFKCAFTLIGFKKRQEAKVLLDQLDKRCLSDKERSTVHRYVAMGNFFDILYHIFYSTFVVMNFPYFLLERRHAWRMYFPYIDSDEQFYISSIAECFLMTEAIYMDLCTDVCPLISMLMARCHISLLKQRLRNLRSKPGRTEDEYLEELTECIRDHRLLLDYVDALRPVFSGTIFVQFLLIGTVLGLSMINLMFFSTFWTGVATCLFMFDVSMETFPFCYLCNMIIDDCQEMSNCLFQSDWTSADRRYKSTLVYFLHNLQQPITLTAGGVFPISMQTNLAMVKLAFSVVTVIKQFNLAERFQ
T4 sequence (Q9VNB5 1-486 partner): T2 sequence (Q9VNB5 1-486 partner)

- % reduction of bombykol response at 2.5 mM (BmOr-1-BmOrco [1]): 46%
Structure (SMILES): C[N+](C)(C)CCSS(C)(=O)=O [MTSET]

Structure (SMILES): CCCCCOC(C)=O [pentyl acetate]
- two-electrode voltage clamp, Xenopus oocytes, current-voltage curves [2]: channels gated by their cognate ligands (ethyl butyrate, pentyl acetate

Structure (SMILES): CCC/C=C\C=C\CCCCCCCCCO [Bombykol]
- EC50 (BmOr-1-BmOrco [3]): 190 nM
- EC50 (BmOr-1-BmOrco [4]): 300 nM

Structure (SMILES): CCCC(=O)OCC [ethyl butyrate]
- two-electrode voltage clamp, Xenopus oocytes, current-voltage curves [5]: channels gated by their cognate ligands (ethyl butyrate, pentyl acetate
